Patent publication US10344025B2, “GLS1 inhibitors for treating disease” (Board of Regents, The University of Texas System, priority 2014, dated 2019)
Like-named read-outs stand apart in the source and are kept apart here.

Legend:
[1] = system: A549 cells; experiment: Proliferation Assay (A549 viability, Cell Titer Fluor, 72 hours); assay type: cell-based
How it was run: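 A549 cells seeded at 1000 cells/well, rested 24 h, then exposed to compound in 0.5% DMSO for 72 h at 37 °C. Viability read by Cell Titer Fluor fluorescence; IC50 from four-parameter logistic fit.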

[2] = molecular target: purified recombinant human GAC (GLS1) (Homo sapiens (Human), UniProt O94925); experiment: GLS1 Enzymatic Activity Assay (dual-coupled enzymatic assay, resorufin/Amplex UltraRed readout); assay type: biochemical;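 note: glutamate from GAC coupled via glutamate oxidase and peroxidase to resorufin, read as fluorescence (ex 530, em 590 nm) kinetically or at 20 min, four-parameter logistic IC50 fit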
Sequence of purified recombinant human GAC (GLS1) (O94925 other isoform, or with tags, fused parts or gaps): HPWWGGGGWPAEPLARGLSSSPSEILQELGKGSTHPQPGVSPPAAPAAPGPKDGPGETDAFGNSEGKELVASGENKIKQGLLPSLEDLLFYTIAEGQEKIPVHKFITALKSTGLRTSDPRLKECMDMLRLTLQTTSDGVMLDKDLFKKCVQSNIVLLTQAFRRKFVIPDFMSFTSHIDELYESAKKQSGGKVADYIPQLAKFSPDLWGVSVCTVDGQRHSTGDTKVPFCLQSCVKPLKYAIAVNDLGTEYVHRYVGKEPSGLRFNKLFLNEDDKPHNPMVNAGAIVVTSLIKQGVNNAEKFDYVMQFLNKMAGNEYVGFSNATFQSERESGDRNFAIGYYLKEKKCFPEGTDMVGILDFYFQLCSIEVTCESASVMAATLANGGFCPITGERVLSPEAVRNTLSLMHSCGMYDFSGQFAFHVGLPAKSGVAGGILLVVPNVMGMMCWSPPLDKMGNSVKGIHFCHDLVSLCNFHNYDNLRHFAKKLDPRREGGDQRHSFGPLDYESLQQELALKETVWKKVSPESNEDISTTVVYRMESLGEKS

| SMILES | EC50 ([1]; Homo sapiens, A549, 72 h) | IC50 [2] | EC50 [1] |
| --- | --- | --- | --- |
| O=C(NCc1cccc(OC(F)(F)F)c1)c1cn(CC(F)CCc2nnc(NC(=O)C3CC3)s2)nn1 (centres unmarked) [Example 568, 1-(4-(5-(cyclopropanecarboxamido)-1,3,4-thiadiazol-2-yl)-2-fluorobutyl)-N-(3-(trifluoromethoxy)benzyl)-1H-1,2,3-triazole-4-carboxamide] | 100 to 500 nM | < 100 nM | – |
| CNC(=O)c1nnc(CCC(F)Cn2cc(C(=O)NCc3cccc(OC(F)(F)F)c3)nn2)s1 (centres unmarked) [Example 504, 5-{3-fluoro-4-[4-({[3-(trifluoromethoxy)phenyl]methyl}carbamoyl)-1H-1,2,3-triazol-1-yl]butyl}-N-methyl-1,3,4-thiadiazole-2-carboxamide] | 100 to 500 nM | < 100 nM | – |
| O=C(Cc1cccc(OC(F)(F)F)c1)Nc1cn(CCCCn2cc(C(=O)NCC3CCCCC3)nn2)nn1 [Example 286, N-(cyclohexylmethyl)-1-[4-(4-{2-[3-(trifluoromethoxy)phenyl]acetamido}-1H-1,2,3-triazol-1-yl)butyl]-1H-1,2,3-triazole-4-carboxamide] | 100 to 500 nM | < 100 nM | – |
| CNC(=O)c1cn(CC(F)CCn2cc(C(=O)NCc3cc(OC(F)(F)F)ccc3F)nn2)nn1 (centres unmarked) [Example 150, 1-{2-fluoro-4-[4-({[2-fluoro-5-(trifluoromethoxy)phenyl]methyl}carbamoyl)-1H-1,2,3-triazol-1-yl]butyl}-N-methyl-1H-1,2,3-triazole-4-carboxamide] | 100 to 500 nM | 100 to 500 nM | – |
| O=C(NCc1cccc(OC(F)(F)F)c1)c1cn(CCCCc2nnc(C(=O)NCc3ccc(C(F)(F)F)cn3)s2)nn1 [Example 77, 5-{4-[4-({[3-(trifluoromethoxy)phenyl]methyl}carbamoyl)-1H-1,2,3-triazol-1-yl]butyl}-N-{[5-(trifluoromethyl)pyridin-2-yl]methyl}-1,3,4-thiadiazole-2-carboxamide] | < 100 nM | < 100 nM | – |
| O=C(NCc1cc(C(F)(F)F)ccn1)c1cn(CC(F)CCc2nnc(C(=O)NCc3ccccn3)s2)nn1 (centres unmarked) [Example 235, 5-(3-fluoro-4-(4-(((4-(trifluoromethyl)pyridin-2-yl)methyl)carbamoyl)-1H-1,2,3-triazol-1-yl)butyl)-N-(pyridin-2-ylmethyl)-1,3,4-thiadiazole-2-carboxamide] | 100 to 500 nM | < 100 nM | – |
| CC(C)CNC(=O)c1nnc(CCCCc2ccc(NC(=O)Cc3cccc(OC(F)(F)F)c3)nn2)s1 [Example 31, N-(2-methylpropyl)-5-[4-(6-{2-[3-(trifluoromethoxy)phenyl]acetamido}pyridazin-3-yl)butyl]-1,3,4-thiadiazole-2-carboxamide] | < 100 nM | < 100 nM | – |
| O=C(Cc1ccc(Cl)cc1F)Nc1cn(CCCCn2cc(C(=O)NCc3ccccn3)nn2)nn1 [Example 366, 1-(4-{4-[2-(4-chloro-2-fluorophenyl)acetamido]-1H-1,2,3-triazol-1-yl}butyl)-N-(pyridin-2-ylmethyl)-1H-1,2,3-triazole-4-carboxamide] | 500 to 5000 nM | 100 to 500 nM | – |
| O=C(CN1CCC(F)(F)C1)Nc1cn(CCCCn2cc(C(=O)NCc3cccc(OC(F)(F)F)c3)nn2)nn1 [Example 331, 1-(4-{4-[2-(3,3-difluoropyrrolidin-1-yl)acetamido]-1H-1,2,3-triazol-1-yl}butyl)-N-{[3-(trifluoromethoxy)phenyl]methyl}-1H-1,2,3-triazole-4-carboxamide] | 100 to 500 nM | < 100 nM | – |
| O=C(NCc1cccc(OC(F)(F)F)c1)c1cn(CCCCc2nnc(C(=O)NCCN3CCCC3)s2)nn1 [Example 49, N-[2-(pyrrolidin-1-yl)ethyl]-5-{4-[4-({[3-(trifluoromethoxy)phenyl]methyl}carbamoyl)-1H-1,2,3-triazol-1-yl]butyl}-1,3,4-thiadiazole-2-carboxamide] | > 5000 nM | 500 to 5000 nM | – |
| O=C(NCc1cc(C(F)(F)F)ccn1)c1cn(CCCCn2cc(C(=O)N[C@H](CO)c3ccccc3)nn2)nn1 [Example 101, 1-[4-(4-{[(1S)-2-hydroxy-1-phenylethyl]carbamoyl}-1H-1,2,3-triazol-1-yl)butyl]-N-{[4-(trifluoromethyl)pyridin-2-yl]methyl}-1H-1,2,3-triazole-4-carboxamide] | 500 to 5000 nM | 500 to 5000 nM | – |
| CNC(=O)c1cn(CC(F)CCc2ccc(NC(=O)Cc3cc(C(F)(F)F)cc(C4CC4)n3)nn2)nn1 (centres unmarked) [Example 263, 1-(4-(6-(2-(6-cyclopropyl-4-(trifluoromethyl)pyridin-2-yl)acetamido)pyridazin-3-yl)-2-fluorobutyl)-N-methyl-1H-1,2,3-triazole-4-carboxamide] | < 100 nM | < 100 nM | – |
| CNC(=O)c1cn(C[C@H](F)CCc2ccc(NC(=O)Cc3cc(OC4CC(OCC(F)(F)F)C4)ccn3)nn2)nn1 (stereo partly drawn) [Example 269, (R)-1-(2-fluoro-4-(6-(2-(4-(3-(2,2,2-trifluoroethoxy)cyclobutoxy)pyridin-2-yl)acetamido)pyridazin-3-yl)butyl)-N-methyl-1H-1,2,3-triazole-4-carboxamide] | < 100 nM | < 100 nM | – |
| O=C(Cc1ccccn1)Nc1cn(CCCCn2cc(C(=O)NCC3CCCCC3)nn2)nn1 [Example 285, N-(cyclohexylmethyl)-1-(4-{4-[2-(pyridin-2-yl)acetamido]-1H-1,2,3-triazol-1-yl}butyl)-1H-1,2,3-triazole-4-carboxamide] | 500 to 5000 nM | 500 to 5000 nM | – |
| COc1cccc(CNC(=O)c2cn(CC(F)CCc3nnc(NC(=O)Cc4cc(OC(F)(F)F)ccc4F)s3)nn2)n1 (centres unmarked) [Example 206, 1-(2-fluoro-4-(5-(2-(2-fluoro-5-(trifluoromethoxy)phenyl)acetamido)-1,3,4-thiadiazol-2-yl)butyl)-N-((6-methoxypyridin-2-yl)methyl)-1H-1,2,3-triazole-4-carboxamide] | < 100 nM | < 100 nM | – |
| CNC(=O)c1cn(C[C@@H](F)CCc2nnc(NC(=O)Cc3cccc(OC(F)(F)F)c3)s2)nn1 [Example 194, (S)-1-(2-fluoro-4-(5-(2-(3-(trifluoromethoxy)phenyl)acetamido)-1,3,4-thiadiazol-2-yl)butyl)-N-methyl-1H-1,2,3-triazole-4-carboxamide] | – | < 100 nM | < 100 nM |
| O=C(NCc1cc(OC(F)(F)F)ccc1F)c1cn(CC(F)CCc2nnc(NC(=O)c3ccccn3)s2)nn1 (centres unmarked) [Example 595, N-(5-(3-fluoro-4-(4-((2-fluoro-5-(trifluoromethoxy)benzyl)carbamoyl)-1H-1,2,3-triazol-1-yl)butyl)-1,3,4-thiadiazol-2-yl)picolinamide] | < 100 nM | < 100 nM | – |
| O=C(Nc1nnc(CCC(F)Cn2cc(C(=O)NCc3cc(OC(F)(F)F)ccc3F)nn2)s1)c1cccnc1 (centres unmarked) [Example 577, N-(5-(3-fluoro-4-(4-((2-fluoro-5-(trifluoromethoxy)benzyl)carbamoyl)-1H-1,2,3-triazol-1-yl)butyl)-1,3,4-thiadiazol-2-yl)nicotinamide] | 500 to 5000 nM | < 100 nM | – |
| CNC(=O)c1cn(CCC(F)Cn2cc(C(=O)NCc3ccccn3)nn2)nn1 (centres unmarked) [Example 163, 1-(3-fluoro-4-{4-[(pyridin-2-ylmethyl)carbamoyl]-1H-1,2,3-triazol-1-yl}butyl)-N-methyl-1H-1,2,3-triazole-4-carboxamide] | 500 to 5000 nM | 500 to 5000 nM | – |
